The test system of one data set is migraine symptoms. Conditions: reported; cited from earlier work.
The subject of data set [1] is chronic spinalized rats. The data set is described as follows: polysynaptic flexor-reflex responses (EMG) in chronic spinalized rats. The format is in vivo. Conditions: for total reduction of the flexor reflex (total area under the curve): two-hour measurement period, several doses, vs vehicle. Here is the method: (§1) Assessment of hyperreflexia, pain, and muscle tone in chronic spinally transected rats was conducted using male albino Holtzman-derived rats (available from Harlan Sprague-Dawley Laboratories) weighing 270-530 grams as subjects. The rats were housed independently and had continuous access to food and water throughout the experiments. All procedures were reviewed and approved by the Institutional Animal Care and Use Committee. Animals were anesthetized using a mixture of isoflurane and oxygen at a flow rate of 4 liters/minute.
(§2) The rats were placed in a stereotaxic frame and anesthesia was maintained. An incision was made so that the paraspinal muscles could be retracted and a laminectomy performed between T6-T9. A one- to two-millimeter portion of the spinal cord was removed by evacuation and replaced with gel foam to reduce bleeding, after which the incision was closed in layers.
Following the transection, rats were placed in a room in which the ambient temperature was raised to about 80° F. with a space heater to maintain body temperature. On the following morning post-surgery, the hindquarters of the spinalized rats were bathed and their urine expressed manually by applying pressure to their bladders. Experiments were conducted between 21 and 28 days after surgery. For the first two weeks post-surgery, 0.25 ml of the antibiotic Sulfatrim Pediatric Suspension was orally administered to the rats to prevent bladder infection. […]
With reference to FIG. 3, polysynaptic flexor-reflex responses, elicited by stimuli that activate high-threshold afferents, were recorded as EMG activity from the ipsilateral hamstring muscle. […] The flexor reflex was recorded, in both the pre-drug and the post-drug periods, every 30 minutes once a stable baseline response was achieved. […] The responses were determined in spinalized rats by observing the flexor-reflex response before treatment and at each of 30, 60, 90, and 120 minutes following administration of isovaleramide (300 mg/kg p.o.), baclofen (10 mg/kg s.c.) and vehicle (water, 12 ml/kg p.o.), respectively. […]

For a further data set, the system named is mice. The data set is described as follows: hot plate test in mice (foot licking latency). It is filed as in vivo. Conditions: 600 orally, 60 minutes after administration, hot plate 54° C., compared to vehicle.
For data set [2], the system named is chronic spinalized rats. Nature of the data set: observational scoring of hyperreflexia elicited by an innocuous stimulus in chronic spinalized rats. It is filed as in vivo. Conditions: 300 mg/kg i.p. As to the method: as §1, §2
Following the transection, rats were placed in a room in which the ambient temperature was raised to about 80° F. with a space heater to maintain body temperature. On the following morning post-surgery, the hindquarters of the spinalized rats were bathed and their urine expressed manually by applying pressure to their bladders. Experiments were conducted between 21 and 28 days after surgery. For the first two weeks post-surgery, 0.25 ml of the antibiotic Sulfatrim Pediatric Suspension was orally administered to the rats to prevent bladder infection. […] Within approximately two weeks, all animals regained bladder control and were no longer given antibiotic treatment. […]
Initial assessment of hyperreflexia was performed by the subjective scoring method of rating the resulting hyperreflexia response elicited with an innocuous stimulus, such as a metal probe. […] The response was evaluated for each of four trials using a scale ranging from zero (no response in all four trials) to four (a maximum, tonic-clonic reaction elicited in all four trials). […] The raw or normalized scores were analyzed with a one-way repeated measures ANOVA. […]

The nature of data set [3]: oral absorption / bioavailability of isovaleramide. The following applies: in vivo.

In the case of `CNS(=O)(=O)Cc1ccc2[nH]cc(CCN(C)C)c2c1` [sumatriptan], in the data set on migraine symptoms, the “patients with relief of the migraine symptoms” value is given as “approximately 40%”.
Regarding `NCC(CC(=O)O)c1ccc(Cl)cc1` (stereo not drawn) [baclofen, reference compound], the “total reduction of the flexor reflex (total area under the curve)” value in the data set with chronic spinalized rats [1] is listed as “dose-dependent reduction of the flexor reflex”.
For orientation: bioavailability means dose-corrected exposure relative to a reference, in per cent. A low value points to little systemic uptake. For the compound `CC(C)CC(N)=O` [isovaleramide, Isovaleramide], the foot licking latency result with mice was “increased foot licking latency”. Also, the “overt behavioral toxicity or motor impairment” value in the data set on chronic spinalized rats [2] (chronic spinalized rats) is given as “No overt behavioral toxicity or motor impairment”. The “reduction of hyperreflexia scores” value in the data set on chronic spinalized rats [2] (15, 30, 60 and 120 minutes post-administration) is on record as 45-65%. Moreover, the “hyperreflexia scores by the next day” value in the data set with chronic spinalized rats [2] (1440 minutes (24 hours)) is “essentially returned to baseline values”. The “magnitude of the flexor-reflex responses” value in the data set on chronic spinalized rats [1] (300 mg/kg p.o., 30, 60, 90 and 120 minutes, compared with baclofen 10 mg/kg s.c.) is reported as “reduce the magnitude of the flexor-reflex responses”. For the same compound, the “total reduction of the flexor reflex (total area under the curve)” value in the data set with chronic spinalized rats [1] is on record as “dose-dependent reduction of the flexor reflex”. Further, in data set [3], the bioavailability is ~100%.

These data come from patent publication US20050101655A1, “Migraine treatments including isovaleramide compounds and serotonin agonists” (priority 2003, published 2005).
